# Values quoted from earlier work as cited in patent US20090088367A1, “Treatment of Insulin Resistance/Metabolic Syndrome to Alleviate the Risks of Dementia” (Burnham Institute For Medical Research, priority 2004, published 2009).
# How the values were obtained:
# [1] = tested on: neurodegeneration induced by beta-amyloid(1-40); settings: Miguel-Hidalgo et al., Brain Res 2002
# [2] = tested on: APP/PS1 double mutant mice; settings: transgenic mouse with mutant amyloid precursor protein and presenilin I; Tanila et al., J Neurochem 2003
# tau hyperphosphorylation = settings: in culture; okadaic acid-induced changes; Iqbal et al., J Neurochem 2003
smiles,measurement,setting,value
"CC12CC3CC(C)(C1)CC(N)(C3)C2 [memantine, 1-amino-3,5-dimethyladamantine]",protection from intrahippocampal injection of Aβ,[1],offer protection
same,performance on behavioral tests (T-maze and Morris water maze),[2],improved performance
same,tau hyperphosphorylation,tau hyperphosphorylation,reduce tau hyperphosphorylation
